From US9487530B2, “Transient protection of normal cells during chemotherapy” (G1 Therapeutics, Inc., priority 2013, dated 2016)
Like-named read-outs stand apart in the source and are kept apart here. Blank lines part the entries; values can stand above or below the molecule they belong to.

Columns and labels:
HSPCs = experiment: Bone marrow HSPC proliferation by EdU incorporation and flow cytometry; format: in vivo, mouse; details: for EdU incorporation into HSPCs compared to control: 150 mg/kg oral gavage, 12 and 24 hours, FIG. 6A
Method: Mice were then sacrificed at the indicated times (0, 12, 24, 36, or 48 hours following compound administration), and bone marrow was harvested (n=3 mice per time point), as previously described (Johnson et al. J. Clin. Invest. (2010) 120(7), 2528-2536). Four hours before the bone marrow was harvested, mice were treated with 100 μg of EdU by intraperitoneal injection (Invitrogen). Bone marrow mononuclear cells were harvested and immunophenotyped using previously described methods and percent EdU positive cells were then determined (Johnson et al. J. Clin. Invest. (2010) 120(7), 2528-2536). In brief, HSPCs were identified by expression of lineage markers (Lin−), ScaI (S+), and c-Kit (K+).
Four hours before animals were sacrificed and the bone marrow was harvested, mice were treated with 100 μg of EdU by intraperitoneal injection. Three mice per group were sacrificed at 12 hours and the remaining three animals per group were sacrificed at 24 hours. Results are shown in FIG. 6A as the ratio of EdU positive cells for treated animals at 12 or 24 hour time points compared to control.
Further experiments were completed with Compound T examining dose response and longer periods of compound treatment. […] […].
Both compounds were administered at 150 mg/kg by oral gavage. One hour prior to harvesting bone marrow, EdU was IP injected to label cycling cells. Bone marrow was harvested at 12, 24, 36, and 48 hours after compound treatment and the percentage of EdU positive HSPC cells was determined at each time point.

[1] = tested on: RB-negative SCLC cell lines (H69, H82, H209, H345, NCI417, SHP-77); experiment: EdU proliferation, RB-negative SCLC cell lines; format: cell-based, human; details: 24 hours treatment
Method: (§1) The effect of Cdk4/6 inhibition on proliferation was measured by EdU incorporation. An RB-intact, Cdk4/6-dependent cell line (WM2664 or tHS68) and a panel of RB-negative SCLC cell lines (H69, H82, H209, H345, NCI417, or SHP-77) were analyzed for growth inhibition by the various CDK4/6 inhibitors.

[2] = tested on: Rb-positive cell line (WM2664 or tHS68); experiment: EdU proliferation, RB-intact Cdk4/6-dependent cell line; format: cell-based; details: 24 hours treatment
Method: as §1

bone marrow progenitors = experiment: Carboplatin-induced cytotoxicity in the bone marrow; format: in vivo, mouse; details: 150 mg/kg oral gavage plus 90 mg/kg carboplatin i.p.; 24 hours
Method: To assess the effect of transient CDK4/6 inhibition by Compound GG on carboplatin-induced cytotoxicity in the bone marrow, FVB/n mice (n=3 per group) were treated with vehicle control, 90 mg/kg carboplatin by intraperitoneal injection, or 150 mg/kg Compound GG by oral gavage plus 90 mg/kg carboplatin by intraperitoneal injection. 24 hours after treatment bone marrow was harvested and the percent of cycling bone marrow progenitors was measured by EdU incorporation as explained earlier. […] EdU incorporation in control animals was normalized to 100% and compared to EdU incorporation for bone marrow from carboplatin treated animals or carboplatin and Compound GG treated animals.

[3] = Mouse pharmacokinetics, oral gavage and intravenous; format: in vivo
[4] = in mice; cited from earlier work
[5] = tested on: HSPC (LKS+) and myeloid progenitor cells (LKS-); details: single 150 mg/kg oral gavage; FIG. 5; cited from earlier work
[6] = tested on: Renal Proximal Tubule Epithelial Cells (Rb-positive); experiment: Cellular wash-out experiment, renal proximal tubule epithelial cells; format: cell-based, human; details: 300 nM; compared to cells treated with compounds T, Q, GG, or U
Method: Alternatively, the same experiment was done using normal Renal Proximal Tubule Epithelial Cells (Rb-positive) obtained from American Type Culture Collection (ATCC, Manassas, Va.). Cells were grown in an incubator at 37° C. in a humidified atmosphere of 5% CO2 in Renal Epithelial Cell Basal Media (ATCC) supplemented with Renal Epithelial Cell Growth Kit (ATCC) in 37° C. humidified incubator.
Upon harvesting cells, samples were stained with propidium iodide staining solution and samples run on Dako Cyan Flow Cytometer. The fraction of cells in G0-G1 DNA cell cycle versus the fraction in S-phase DNA cell cycle was determined using FlowJo 7.2.2 analysis.

[7] = PD0332991 pharmacokinetics and HSPC arrest in humans; format: in vivo, human; details: single administration
Method: When calculated half-life was longer than the duration of the experiment, the half-life was expressed as >the longest incubation time. The calculated half-life is also listed in parentheses. […] The timely resumption of cellular proliferation is necessary for tissue repair, and therefore an overly long period of arrest is undesirable in healthy cells such as HSPCs. The characteristics of a CDK4/6 inhibitor that dictate its arresting duration are its pharmacokinetic (PK) and enzymatic half-lives. Once initiated, a G1-arrest in vivo will be maintained as long as circulating compound remains at an inhibitory level, and as long as the compound engages the enzyme. […] […]. […] […]. These observations may explain the severe granulocytopenia seen with PD0332991 in the clinic.

[8] = in humans; cited from earlier work
CDK4/CycD1 = biological target: T1, CDK4/CycD1 (Homo sapiens, UniProt P11802); experiment: CDK4/cyclinD1 kinase assay (Nanosyn, Caliper microfluidic); format: biochemical
T1 construct: Nanosyn (ran the assay as a service)
T1 sequence (P11802 whole entry, species assumed): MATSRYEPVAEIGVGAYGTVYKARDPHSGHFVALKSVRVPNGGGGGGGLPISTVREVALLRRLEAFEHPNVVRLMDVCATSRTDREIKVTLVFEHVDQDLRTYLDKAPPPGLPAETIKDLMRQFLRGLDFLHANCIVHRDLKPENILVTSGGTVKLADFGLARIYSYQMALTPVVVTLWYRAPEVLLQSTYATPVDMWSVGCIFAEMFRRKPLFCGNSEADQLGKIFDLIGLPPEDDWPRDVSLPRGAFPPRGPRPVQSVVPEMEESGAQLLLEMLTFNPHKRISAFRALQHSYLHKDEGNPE
T1 sequence (P24385 whole entry partner, species assumed): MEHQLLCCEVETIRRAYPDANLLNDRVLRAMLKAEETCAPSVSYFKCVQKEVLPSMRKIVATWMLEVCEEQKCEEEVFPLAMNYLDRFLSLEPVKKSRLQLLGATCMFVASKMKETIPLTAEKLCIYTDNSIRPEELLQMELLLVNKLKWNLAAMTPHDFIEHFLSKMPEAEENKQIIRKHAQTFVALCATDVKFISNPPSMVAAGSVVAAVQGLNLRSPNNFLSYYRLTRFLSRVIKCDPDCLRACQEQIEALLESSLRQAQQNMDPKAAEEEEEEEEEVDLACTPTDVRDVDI
Method: (§2) Selected compounds disclosed herein were tested in CDK4/cyclinD1, CDK6/CycD3 CDK2/CycA and CDK2/cyclinE kinase assays by Nanosyn (Santa Clara, Calif.) to determine their inhibitory effect on these CDKs. The assays were performed using microfluidic kinase detection technology (Caliper Assay Platform). The compounds were tested in 12-point dose-response format in singlicate at Km for ATP. Phosphoacceptor substrate peptide concentration used was 1 μM for all assays and Staurosporine was used as the reference compound for all assays. Specifics of each assay are as described below:
CDK4/CyclinD1: Enzyme concentration: 1 nM; ATP concentration: 200 μM; Incubation time: 10 hr.

CDK2/CycE = biological target: T2, CDK2/CycE (Homo sapiens, UniProt P24941); experiment: CDK2/cyclinE kinase assay (Nanosyn, Caliper microfluidic); format: biochemical
T2 construct: Nanosyn (ran the assay as a service)
Method: as §2, with “assays.” for “assays. Specifics of each assay are as described below:”

- F (oral bioavailability) [3]: 52%
Compound: CC(C)N1CCN(c2ccc(Nc3ncc4cc5n(c4n3)C3(CCCCC3)CNC5=O)nc2)CC1 [GG, 2′-((5-(4-isopropylpiperazin-1-yl)pyridin-2-yl)amino)-7′,8′-dihydro-6′H-spiro[cyclohexane-1,9′-pyrazino[1′,2′:1,5]pyrrolo[2,3-d]pyrimidin]-6′-one]
- EdU incorporation into HSPCs compared to control (HSPCs): reduction in EdU incorporation at 12 hours which was starting to return to normal at 24 hours
- growth (cells in S-phase by EdU) [1]: does not affect the growth
- proliferation (cells in S-phase by EdU) [2]: inhibits
- cycling bone marrow progenitors (EdU incorporation) (bone marrow progenitors): significant protection of bone marrow progenitors

Compound: CC(=O)c1c(C)c2cnc(Nc3ccc(N4CCNCC4)cn3)nc2n(C2CCCC2)c1=O [PD0332991, 6-acetyl-8-cyclopentyl-5-methyl-2-(5-piperazin-1-yl-pyridin-2-ylammino)-8H-pyrido-[2,3-d]-pyrimidin-7-one]
- duration of sustained reduction in HSPCs (HSPCs; single 150 mg/kg oral dose, FIG. 7): greater than 36 hours
- PK half-life [4]: 6 h
- growth (cells in S-phase by EdU) [1]: does not affect the growth
- proliferation (cells in S-phase by EdU) [2]: inhibits
- duration of sustained reduction in HSPC and myeloid progenitor cell EdU incorporation [5]: greater than 36 hours
- time until HSPC and myeloid progenitor cells return to baseline cell division [5]: 48 h
- time to return to baseline levels of cell division after wash out [6]: significantly longer
- duration of cell cycle arrest of HSPC [7]: approximately one week
- PK half-life [8]: 27 h

- oral bioavailability [3]: low
Compound: O=C1NCC2(CCCCC2)n2c1cc1cnc(Nc3ccc(N4CCNCC4)cn3)nc12 [Q, 2′-((5-(piperazin-1-yl)pyridin-2-yl)amino)-7′,8′-dihydro-6′H-spiro[cyclohexane-1,9′-pyrazino[1′,2′:1,5]pyrrolo[2,3-d]pyrimidin]-6′-one]
- EdU incorporation into HSPCs compared to control (HSPCs): some reduction at 12 hours and started to return to baseline at 24 hours

- F (oral bioavailability) [3]: 67%
Compound: O=C1NCC2(CCCCC2)n2c1cc1cnc(Nc3ccc(N4CCC(N5CCOCC5)CC4)cn3)nc12 [U, 2′-((5-(4-morpholinopiperidin-1-yl)pyridin-2-yl)amino)-7′,8′-dihydro-6′H-spiro[cyclohexane-1,9′-pyrazino[1′,2′:1,5]pyrrolo[2,3-d]pyrimidin]-6′-one]

- IC50 (CDK4/CycD1): 7.4 nM
- IC50 (CDK2/CycE): 4380 nM
Compound: CCC(C)[C@@H]1CNC(=O)c2cc3cnc(Nc4ccc(N5CCNCC5)cn4)nc3n21 (stereo partly shown) [VVV]
